Results on three compounds are retold here after patent US20240316051A1, “A PHARMACEUTICAL COMBINATION AND USE THEREOF” (Ascentage Pharma (Suzhou) Co., Ltd., priority 2021, published 2024).

What all share (type): in vivo, mice
The test system of assay [1] is malignant pleural mesothelioma (MPM) PDX model (FGFR1high; BAP1mut). The assay is described as follows: Subcutaneous malignant pleural mesothelioma (MPM) PDX model (Example 20). Conditions: Compound 73 100 mg/kg, Compound C 50 mg/kg, each orally every other day, 76 days; alone or combined. How it is done:
(§1) A subcutaneous xenograft tumor model of human tumor immunodeficient mice was established by cell inoculation: tumor cells in logarithmic growth phase were collected, counted, resuspended in 1×PBS, and the cell suspension concentration was adjusted to 2.5-5×10^7/mL. The tumor cells were inoculated subcutaneously in the right side of immunodeficient mice with a 1 ml syringe ([…]), 5-10×10^6/0.2 mL/mouse. All animal experiments were strictly in accordance with the specifications for the use and management of experimental animals in GenePharma Co., Ltd. and Suzhou Ascentage Pharma Co., Ltd. The calculation of relevant parameters refers to the Chinese NMPA “Guidelines for Non-Clinical Research Techniques of Cytotoxic Anti-tumor Drugs”.
(§2) Animal body weight and tumor size were measured twice weekly during the experiment. The state of the animal and the presence or absence of death were observed every day. The growth of tumor and the effects of treatment on normal behavior of animals were monitored routinely, specifically involving experimental animal activity, feeding and drinking, weight gain or loss, eyes, clothing hair and other abnormalities. The deaths and clinical symptoms observed during the experiment were recorded in the raw data. All operations for administration and measurement of mouse body weight and tumor volume were performed in a clean bench. According to the requirements of the experimental protocol, after the end of the last administration, plasma and tumor tissues were collected, weighed and photographed. The plasma and tumor samples were frozen at −80° C. for ready-to-use.
(§3) Tumor volume (TV) is calculated as: TV=a×b^2/2, wherein a and b represent the length and width of the tumor to be measured, respectively.
(§4) The relative tumor volume (RTV) is calculated as: RTV=Vt/V1, wherein V1 is the tumor volume at the start of grouping and administration, and Vt is the tumor volume measured on the t day after administration. […]
Change of body weight (%)=(measured body weight-body weight at the start of grouping)/body weight at the start of grouping×100%. […]
(§5) According to the description by Clarke R., Issues in experimental design and endpoint analysis in the study of experimental cytotoxic agents in vivo in breast cancer and other models [J]. Breast Cancer Research & Treatment, 1997, 46(2-3): 255-278, synergy analysis was evaluated using the following formula: synergy factor=((A/C)×(B/C))/(AB/C); A=RTV value of drug A alone group; B=RTV value of drug B alone group; C=RTV value of the solvent control group, and AB=RTV value of the A and B combination group. […]

For assay [2], the system named is H226 (BAP1mut, UHRF1high, TP53WT, CDKN2Adel, FGFRhigh) subcutaneous mesothelioma xenograft. As to the kind of experiment: H226 subcutaneous mesothelioma xenograft model (Example 22). How it is done:
as §1, §2, §3
(§6) The relative tumor volume (RTV) is calculated as: RTV=Vt/V1, wherein V1 is the tumor volume at the start of grouping and administration, and Vt is the tumor volume measured on the t day after administration.
(§7) The evaluation index of anti-tumor activity is the relative tumor proliferation rate T/C (%), and the calculation formula thereof is: relative tumor proliferation rate T/C (%)=(TRTV/CRTV)×100%, TRTV is the RTV of treatment group, CRTV is the RTV of solvent control group.
(§8) Change of body weight (%)=(measured body weight-body weight at the start of grouping)/body weight at the start of grouping×100%.
(§9) A dose of drug is considered to be severely toxic if the body weight of mouse is reduced by more than 20% or the number of drug-related deaths exceeds 20%.
In this experiment, H226 (BAP1mut, UHRF1high, TP53WT, CDKN2Adel, FGFRhigh) subcutaneous mesothelioma xenograft model was established to evaluate the anti-tumor effect of Compound 73 in combination with Compound C. The dosing regimen was as follows: • Compound C: 50 mg/kg, orally, every other day, for a total of 39 days; • Compound 73: 50 mg/kg, orally, once per day, for a total of 39 days; • Compound 73: 100 mg/kg, orally, once per day, for a total of 39 days.

Assay [3] deals with BAP1 mut mesothelioma PDX model. As to the kind of experiment: Subcutaneous BAP1 mut mesothelioma PDX model (Example 21). The conditions noted are these: Compound 73 100 mg/kg orally once per day, Compound C 50 mg/kg orally every other day, 36 days; alone or combined. The procedure: as §1, §2, §3, §6, §7, §8, §9
In this experiment, subcutaneous BAP1 mut mesothelioma PDX model was established (Lide Biotech) to evaluate the anti-tumor effect of Compound 73 in combination with Compound C. […]

Assay [4] has as its system NCI-H28(X1) (BAP1mut, UHRF1high, TP53WT, CDKN2Adel, FGFRlow, NF2WT) subcutaneous mesothelioma xenograft. As to the kind of experiment: NCI-H28(X1) subcutaneous mesothelioma xenograft model (Example 23). The conditions noted are these: Compound C 50 mg/kg orally every other day, Compound 73 100 mg/kg orally once per day, 28 days, alone or combined. The procedure:
as §1, §2, §3, §6
The evaluation index of anti-tumor activity is the relative tumor proliferation rate T/C (%), and the calculation formula thereof is: relative tumor proliferation rate T/C (%)=(TRTV/CRTV)×100%, TRTV is the RTV of treatment group, CRTV is the RTV of solvent control group. […]
as §5

A further assay has as its system 22RV1 prostate xenograft. The assay is described as follows: Subcutaneous 22RV1 prostate xenograft model (Example 24). How it is done: as §1, §2, §3, §6, §7, §8, §9
(§10) According to the description by Clarke R., Issues in experimental design and endpoint analysis in the study of experimental cytotoxic agents in vivo in breast cancer and other models [J]. Breast Cancer Research & Treatment, 1997, 46(2-3): 255-278, synergy analysis was evaluated using the following formula: synergy factor=((A/C)×(B/C))/(AB/C); A=RTV value of drug A alone group; B=RTV value of drug B alone group; C=RTV value of the solvent control group, and AB=RTV value of the A and B combination group.
In this experiment, subcutaneous 22RV1 prostate xenograft model was established to evaluate the anti-tumor effect of Compound 73 in combination with Compound C. The dosing regimen was as follows: • Compound C: 100 mg/kg, orally, every other day, for a total of 28 days; • Compound 73: 100 mg/kg, orally, once per day, for a total of 28 days;
(§11) The dosing regimen of each drug in the dosing regimen for the combination is the same as the dosing regimen for the single drug, for a total of 28 days.

A further assay has as its system LnCap prostate xenograft. The assay is described as follows: Subcutaneous LnCap prostate xenograft model (Example 25). Conditions: day 17. The procedure:
as §1, §2, §3, §6, §7, §9, §10
In this experiment, subcutaneous LnCap prostate xenograft model was established to evaluate the anti-tumor effect of Compound 73 in combination with Compound C. The dosing regimen was as follows: • Compound C: 100 mg/kg, orally, every other day, for day 1-day 9; 50 mg/kg, orally, every other day, for day 10-day 28; • Compound 73: 100 mg/kg, orally, once per day, for a total of 28 days;
as §11

The subject of assay [5] is BAP1 mut mesothelioma PDX model. As to the kind of experiment: BAP1 mut mesothelioma PDX model (Examples 15-17). The conditions noted are these: orally, 28 days. How it is done: as §1, §2, §3, §6, §7, §9, §10
In this experiment, a BAP1 mut mesothelioma PDX model (Lide Biotech) was established to evaluate the anti-tumor effect of Compound 73. The dosing regimen was as follows: • Compound 73: 50 mg/kg, orally, once per day, for a total of 28 days; • Compound 73: 100 mg/kg, orally, once per day, for a total of 28 days;
In this experiment, a BAP1 mut mesothelioma PDX model (Lide Biotech) was established to evaluate the anti-tumor effect of Compound 73 in combination with Compound A-1. […]

The test system of assay [6] is NCI-H226 (BAP1mut, CDKN2Adel, FGFR high) xenograft. The assay is described as follows: NCI-H226 xenograft model (Examples 18-19). The conditions noted are these: Compound 2-5 50 mg/kg, orally, once per day, 35 days. The procedure:
as §1
Animal body weight and tumor size were measured twice weekly during the experiment. The state of the animal and the presence or absence of death were observed every day. The growth of tumor and the effects of treatment on normal behavior of animals were monitored routinely, specifically involving experimental animal activity, feeding and drinking, weight gain or loss, eyes, clothing hair and other abnormalities. The deaths and clinical symptoms observed during the experiment were recorded in the raw data. […] The plasma and tumor samples were frozen at −80° C. for ready-to-use.
as §3, §4
Use of mRECIST (Gao et al., 2015) measured tumor responses included stable disease (SD), partial tumor regression (PR), and complete regression (CR), determined by comparing tumor volume change at day t to its baseline: tumor volume change (%)=(Vt−V1)/V1. […] For each time t, the average of tumor volume changes from t=1 to t was also calculated. […] Body weight of animals were monitored simultaneously. […]

Regarding `CCN1[C@@H](C(=O)NC23CCC(C(=O)O)(CC2)CC3)[C@H](c2cccc(Cl)c2F)[C@]2(C(=O)Nc3cc(Cl)ccc32)C12CCCCC2` [Compound C], the “RTV @ D 76” value in assay [1] is on record as 3.47. In addition, the “T/C (%) @ D 76” value in assay [1] came out at 60%. The “T/C (%) @ D 39” value in assay [2] (Compound C 50 mg/kg orally every other day, Compound 73 50 mg/kg orally once per day, alone or combined) was determined as 49.45%. In addition, the “RTV @ D 39” value in assay [2] (Compound C 50 mg/kg orally every other day, Compound 73 50 mg/kg orally once per day, alone or combined, mean ± SEM) is 3.94 ± 0.69. The “antitumor activity (in words)” value in assay [2] (single agents, 39 days (FIG. 10)) is “moderate antitumor activity”. For the same compound, the “RTV @ D 36” value in assay [3] was found to be 8.04. The “T/C (%) @ D 36” value in assay [3] came to 55.17%. Also, the “T/C (%) @ D 29” value in assay [4] is reported as 92.16%. For the same compound, the “RTV@ D 29” value in assay [4] (mean ± SEM) is given as 14.06 ± 1.22; with 22RV1 prostate xenograft (22RV1 xenograft, day 29), 18.54 ± 7.96. Moreover, in the assay with 22RV1 prostate xenograft (22RV1 xenograft, day 26, Compound 73 100 mg/kg orally once per day, Compound C 50 mg/kg (table) orally every other day), the “RTV@ D 26” value is listed as 14.81 ± 4.35. Besides, in the assay with 22RV1 prostate xenograft (22RV1 xenograft, day 26, Compound 73 100 mg/kg, Compound C 50 mg/kg (table)), the “T/C(%) @ D 26” value is reported as 93.39%. Besides, the T/C value was 93.39% in the assay on 22RV1 prostate xenograft (day 26, Compound C 100 mg/kg orally every other day, Compound 73 100 mg/kg orally once per day, alone or combined) and 57.46% in the assay with LnCap prostate xenograft (Compound C 100 mg/kg every other day day 1-9 then 50 mg/kg day 10-28, Compound 73 100 mg/kg once per day, orally, alone or combined). The “RTV@ D 17” value in the assay on LnCap prostate xenograft (LnCap xenograft, Compound 73 100 mg/kg orally once per day, Compound C 100 mg/kg/50 mg/kg orally every other day) came out at 2.57 ± 0.24. Besides, the “T/C(%) @ D 17” value in the assay on LnCap prostate xenograft (LnCap xenograft, Compound 73 100 mg/kg, Compound C 100 mg/kg/50 mg/kg) came out at 57.46%.
As to `Cc1ccc(C(=O)Nc2ccc(CN3CCN(C)CC3)c(C(F)(F)F)c2)cc1C#Cc1cnc2[nH]ncc2c1` [Compound A-1], the “T/C (%)” value in assay [5] (Compound A-1 10 mg/kg, every other day, end of study) came to 74.8%.
Take `Cc1cc(Nc2ncc(Cl)c(Nc3ccccc3S(=O)(=O)C(C)C)n2)c(OC(C)C)cc1C1=CCN(C2CCOCC2)CC1` [Compound 2-5, 5-chloro-N^2-(2-isopropoxy-5-methyl-4-(1-(tetrahydro-2H-pyran-4-yl)-1,2,3,6-tetrahydropyridin-4-yl)phenyl)-N^4-(2-(isopropylsulfonyl)phenyl)pyrimidine-2,4-diamine]: the “inhibition of tumor growth (in words)” value is reported as “almost not effective in inhibiting tumor growth” in assay [6] and “not effective in inhibiting tumor growth” in assay [5] (Compound 2-5 50 mg/kg, once per day).
